According to paper PMC8151276, “An Integrated Approach toward NanoBRET Tracers for Analysis of GPCR Ligand Engagement” (Molecules, 2021):

Target: T1, CHRM4 (Homo sapiens, UniProt P08173)
T1 construct: purchased Promega (in-house HiBiT-GPCR construct library, NanoBRET)
T1 sequence (P08173 1-479): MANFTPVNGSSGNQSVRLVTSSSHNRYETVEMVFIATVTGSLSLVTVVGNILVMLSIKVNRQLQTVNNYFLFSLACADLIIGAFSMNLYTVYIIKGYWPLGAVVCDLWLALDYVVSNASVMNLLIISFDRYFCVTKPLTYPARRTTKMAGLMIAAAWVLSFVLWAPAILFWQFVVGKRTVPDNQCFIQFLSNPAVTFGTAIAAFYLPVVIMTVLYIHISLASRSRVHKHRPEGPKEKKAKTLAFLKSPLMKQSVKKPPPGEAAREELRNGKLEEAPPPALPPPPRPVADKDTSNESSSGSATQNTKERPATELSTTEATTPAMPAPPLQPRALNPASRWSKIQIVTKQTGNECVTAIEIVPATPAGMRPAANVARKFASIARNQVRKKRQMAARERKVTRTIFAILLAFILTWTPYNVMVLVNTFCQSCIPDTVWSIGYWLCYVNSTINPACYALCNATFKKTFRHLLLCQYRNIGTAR
Assay: NanoBRET screen HiBiT-CHRM4 in HEK293
Format: binding
Method: Each tracer candidate was screened across the entire library of HiBiT-GPCR constructs using NanoBRET as the detection modality. As depicted in Figure 4A, the specificity of interactions was evaluated through decrease in BRET due to competitive displacement of a bound tracer by excess parental compound. Each tracer was analyzed for binding to each HiBiT-GPCR fusion in the absence and in the presence of competing parental compound. Briefly, HEK293 cells were transfected with HiBiT-GPCR constructs diluted into promoterless DNA to reduce expression and maximize translocation to the cell surface. Each tracer candidate was then screened at concentrations of 1 μM and 0.1 μM across cells expressing these fusions. Cells were treated for 1.5 h with tracer either alone or in the presence of 20 μM competing parental compound (i.e., control). BRET was measured upon addition of purified LgBiT and subsequent complementation with HiBiT genetically fused to a GPCR. The specificity of interactions was assessed through a decrease in BRET signal due to competitive displacement of the bound tracer. To further gauge the robustness of these interactions, the fold response over the control (i.e., BRETtracer/BRETcontrol) was calculated. We chose a 1.5-fold response, which translates to ≥7-fold signal over noise as the minimal threshold required to score an interaction as positive.
HiBiT-GPCR DNA constructs were diluted in 10 mM Tris pH 8 to a final concentration of 0.01 μg/μL, arrayed in 96-well plates and stored at −20 °C. For transfection, HEK293 cells were suspended in Opti-MEM (without phenol red) supplemented with 2% fetal bovine serum (Seradigm) and 100 units/mL penicillin–streptomycin (Gibco) at a final concentration of 220,000 cells/mL and dispensed into white 96-well plates at 90 μL/well. Subsequent transfections and screens were carried using an Agilent Bravo Automated Liquid Handling Platform. First, the 96-well HiBiT DNA arrays were diluted 25-fold in Opti-MEM (without serum or phenol red) to a final concentration of 0.0004 μg/μL and 20 μL of the diluted DNAs were transferred into new 96-well plates. Next, promoterless carrier DNA (1 μg/μL) was diluted 25-fold (0.04 μg/μL) and then dispensed into the diluted arrays at 20 μL/well. Following brief mixing, Viafect transfection reagent (Promega) diluted 16-fold into Opti-MEM was dispensed into the plates at 40 μL/well. After mixing by pipetting, plates were incubated for 10 min on the pipetting station deck. The DNA-transfection reagent complexes were then added to plates containing cells. To facilitate the screen, 10 μL of DNA-transfection reagent complexes were added in duplicates to the top 4 and bottom 4 rows, resulting in two identical 48-well arrays per plate. Plates with transfected cells were incubated for 18–20 h at 37 °C/5% CO2. A screen of each tracer across the entire library using two different concentrations requires duplicate plates of transfected cells. Depending on the number of tracers being screened, transfections can be scaled up using the same ratios. The next day, for each tracer, four 20× screening solutions in tracer dilution buffer (Promega) were prepared: two duplicates at final concentration of 20 μM and two duplicates at a final concentration of 2 μM. […] The four resulting solutions were diluted 4-fold in Opti-MEM without serum or phenol red to generate 5× solutions (5 µM and 0.5 µM tracer +/− 100 μM competing compound). To screen the library, a BioTek MultiFlo FX liquid dispenser was used to dispense 22.5 µL of tracer solution to the top 4 rows and 22.5 µL tracer + competing compound solution to the 4 bottom rows. Plates were briefly mixed on an orbital shaker and incubated for 1.5 h at room temperature. […] Plates were briefly mixed on an orbital shaker and incubated for 15 min to allow complementation.

Row | SMILES | NanoBRET Fold Response (CHRM4, tracer 0.1μM) | NanoBRET Fold Response (CHRM4, tracer 1μM) | other results
1 | Cc1nc2n(c(=O)c1CCN1CCC(c3noc4cc(F)ccc34)CC1)CCCC2OC(=O)NCCOCCOCCOCCOCCNC(=O)CCc1ccc2n1[B-](F)(F)[N+]1=C(c3ccc[nH]3)C=CC1=C2 (stereo not shown) [Risperidone-2-NB590] | 1.10 | 1.67 | 
2 | CCOC(=O)c1cc(C#N)c(N2CCC(C(=O)NS(=O)(=O)Cc3ccccc3/C=C/C(=O)NCCNC(=O)CCc3ccc4n3[B-](F)(F)[N+]3=C(c5ccc[nH]5)C=CC3=C4)CC2)nc1C [AZD1283-1-NB590] |  |  | NanoBRET Fold Response (CHRM4, 0.1μM): 0.97; NanoBRET Fold Response (CHRM4, 1μM): 1.06
3 | Cc1cc2c(s1)Nc1ccccc1N=C2N1CCN(CCCNC(=O)CCOCCOCCOCCOCCNC(=O)CCc2ccc3n2[B-](F)(F)[N+]2=C(c4ccc[nH]4)C=CC2=C3)CC1 [Olanzapine-a-2-NB590] | 1.07 | 1.23 | 
4 | COc1ccccc1N1CCN(CCCCN2C(=O)c3ccc(CNC(=O)CCOCCNC(=O)c4ccc(CNC(=O)CCc5ccc6n5[B-](F)(F)[N+]5=C(c7ccc[nH]7)C=CC5=C6)cc4)cc3C2=O)CC1 [NAN-190-3-NB590] | 1.30 | 0.66 | 
5 | CC(C)N(CC[C@H](c1ccccc1)c1cc(CCNC(=O)CCOCCOCCOCCOCCNC(=O)CCc2ccc3n2[B-](F)(F)[N+]2=C(c4ccc[nH]4)C=CC2=C3)ccc1O)C(C)C [Tolterodine-2-NB590] | 2.75 | 1.53 | 
6 | CN(C)CCC=C1c2ccccc2CCc2ccc(C(=O)NCCNC(=O)CCOCCOCCOCCOCCNC(=O)CCc3ccc4n3[B-](F)(F)[N+]3=C(c5ccc[nH]5)C=CC3=C4)cc21 [Amitriptyline-b-2-NB590] |  |  | NanoBRET Fold Response (tracer at 0.1μM, listed as amitriptyline-b-2-NB590): 3.79; NanoBRET Fold Response (tracer at 1μM, listed as amitriptyline-b-2-NB590): 1.75
7 | O=C(CCOCCOCCOCCOCCNC(=O)CCc1ccc2n1[B-](F)(F)[N+]1=C(c3ccc[nH]3)C=CC1=C2)NCCCN1CCN(C2=Nc3ccccc3Oc3ccc(Cl)cc32)CC1 [Loxapine-a-2-NB590] | 1.11 | 1.18 | 
8 | CN(C)CCC=C1c2ccccc2CCc2ccc(C(=O)NCCNC(=O)CCOCCOCCOCCOCCNC(=O)CCc3ccc4n3[B-](F)(F)[N+]3=C(c5ccc[nH]5)C=CC3=C4)cc21 [Amitriptyline-a-2-NB590] |  |  | NanoBRET Fold Response (tracer at 1μM): 1.45
9 | O=C(CCc1ccc2n1[B-](F)(F)[N+]1=C(c3ccc[nH]3)C=CC1=C2)NCCOCCOCCNC(=O)OCCOCCN1CCN(C2=Nc3ccccc3Sc3ccccc32)CC1 [Quetiapine-a-2-NB590] | 1.65 | 2.06 | 
10 | COc1ccccc1N1CCN(CCCCN2C(=O)c3ccc(CNC(=O)CCOCCOCCOCCOCCNC(=O)CCc4ccc5n4[B-](F)(F)[N+]4=C(c6ccc[nH]6)C=CC4=C5)cc3C2=O)CC1 [NAN-190-2-NB590] | 1.18 | 1.17 | 
11 | CN1CCN(C2=Nc3cc(Cl)ccc3N(CC(=O)NCCOCCOCCOCCOCCNC(=O)CCc3ccc4n3[B-](F)(F)[N+]3=C(c5ccc[nH]5)C=CC3=C4)c3ccccc32)CC1 [Clozapine-c-2-NB590] |  |  | NanoBRET Fold Response (CHRM4, 0.1μM tracer): 0.97; NanoBRET Fold Response (CHRM4, 1μM tracer): 0.98
12 | COc1ccc2[nH]c(-c3ccc(CNC(=O)CCOCCOCCOCCOCCNC(=O)CCc4ccc5n4[B-](F)(F)[N+]4=C(c6ccc[nH]6)C=CC4=C5)cc3)c(CCNC(C)=O)c2n1 [AzomelatoninICO9-2-NB590] |  |  | NanoBRET Fold Response (0.1μM tracer): 0.77; NanoBRET Fold Response (1μM tracer): 0.98
13 | O=C(CCOCCOCCOCCOCCNC(=O)CCc1ccc2n1[B-](F)(F)[N+]1=C(c3ccc[nH]3)C=CC1=C2)NCCCN1CCN(C2=Nc3cc(Cl)ccc3Nc3ccccc32)CC1 [Clozapine-a-2-NB590] |  |  | NanoBRET Fold Response (CHRM4, 0.1μM tracer): 1.55; NanoBRET Fold Response (CHRM4, 1μM tracer): 1.90
14 | CCCn1c(=O)c2[nH]c(-c3ccc(OCC(=O)NCCNC(=O)CCOCCNC(=O)c4ccc(CNC(=O)CCc5ccc6n5[B-](F)(F)[N+]5=C(c7ccc[nH]7)C=CC5=C6)cc4)cc3)nc2n(CCC)c1=O [XAC-3-NB590] | 0.78 | 1.10 | 
15 | O=C(CCc1ccc2n1[B-](F)(F)[N+]1=C(c3ccc[nH]3)C=CC1=C2)NCc1ccc(C(=O)NCCOCCOCCNCC(O)COc2cccc3ccccc23)cc1 (stereo not shown) [Propranolol-3-NB590] |  |  | NanoBRET Fold Response (CHRM4, 0.1μM): 0.96; NanoBRET Fold Response (CHRM4, 1μM): 1.05
16 | O=C(CCc1ccc2n1[B-](F)(F)[N+]1=C(c3ccc[nH]3)C=CC1=C2)NCc1ccc(C(=O)NCCOCCC(=O)N[C@@H]2CC[C@@]3(O)[C@H]4Cc5ccc(O)c6c5[C@@]3(CCN4CC3CC3)[C@H]2O6)cc1 [Naltrexone-3-NB590] | 0.66 | 0.79 | 
17 | CN(CCC=C1c2ccccc2CCc2ccccc21)C(=O)CCOCCOCCOCCOCCNC(=O)CCc1ccc2n1[B-](F)(F)[N+]1=C(c3ccc[nH]3)C=CC1=C2 [Amitriptyline-e-2-NB590] |  |  | NanoBRET Fold Response (tracer at 1μM): 1.25
18 | N#CN=C(NCCCOc1cccc(CN2CCCCC2)c1)NCCNC(=O)CCOCCOCCOCCOCCNC(=O)CCc1ccc2n1[B-](F)(F)[N+]1=C(c3ccc[nH]3)C=CC1=C2 [Aminopotentidine-2-NB590] | 1.17 | 1.39 | 
19 | COc1ccc2c(n1)c(CCNC(C)=O)cn2CCNC(=O)CCc1ccc2n1[B-](F)(F)[N+]1=C(c3ccc[nH]3)C=CC1=C2 [Azamelatonin-1-NB590] |  |  | NanoBRET Fold Response (0.1μM tracer): 0.74; NanoBRET Fold Response (1μM tracer): 0.98
20 | CC(C)N(CC[C@H](c1ccccc1)c1cc(CCNC(=O)c2ccc(CNC(=O)CCc3ccc4n3[B-](F)(F)[N+]3=C(c5ccc[nH]5)C=CC3=C4)cc2)ccc1O)C(C)C [Tolterodine-BZ-NB590] | 3.69 | 2.39 | 
21 | CN1CCN(C2=Nc3cc(Cl)ccc3Nc3ccc(CNC(=O)CCOCCOCCOCCOCCNC(=O)CCc4ccc5n4[B-](F)(F)[N+]4=C(c6ccc[nH]6)C=CC4=C5)cc32)CC1 [Clozapine-b-2-NB590] |  |  | NanoBRET Fold Response (CHRM4, 0.1μM tracer): 1.48; NanoBRET Fold Response (CHRM4, 1μM tracer): 2.78
